Publication PMC12888861, “Antibacterial activity of enmetazobactam against Acinetobacter spp.: a molecular dissection of mechanism of action and resistance determinants” (Antimicrobial Agents and Chemotherapy, 2025)

System: carbapenem-resistant A. baumannii (CRAB) isolates (n = 67)
Assay: MIC, broth microdilution (EUCAST), carbapenem-resistant A. baumannii isolates
Type: cell-based, Acinetobacter baumannii
Settings: ETZ fixed 8 mg/L in combinations; for MIC: Acinetobacter baumannii
Source text: The bacterial strains used in this study comprised 208 clinical isolates from the Spanish National Acinetobacter spp. 2020 Multicenter Collection, which was previously characterized in detail by our research group, including whole-genome sequencing, phylogenetics studies, clonal dynamics, and resistance mechanisms ([2], [29]). Additionally, a collection of A. baumannii ATCC 17978 transformants coding the blaOXA-23, blaOXA-24/40, blaOXA-51, blaOXA-58, blaOXA-143, and blaOXA-201 genes, previously constructed and described by our group ([30]), was used to determine the activity of enmetazobactam against strains carrying the main CHDLs of A. baumannii.
The antimicrobial susceptibility of the 208 Acinetobacter spp. isolates was assessed using the broth microdilution method, as described in the European Committee on Antimicrobial Susceptibility Testing (EUCAST) v.15 guidelines (http://www.eucast.org/clinical_breakpoints). […] MICs for enmetazobactam alone were assessed as well. […] Subsequently, MIC testing was also conducted with a collection of A. baumannii ATCC 17978 transformants expressing clinically relevant OXA-like carbapenemase genes.
The A. baumannii ATCC 19606 strain was used as the reference strain in all susceptibility experiments, in duplicate assays. Antibiotics were purchased from Sigma-Aldrich, except enmetazobactam and durlobactam, which were obtained from Advanz Pharma and MedChemExpress, respectively.

Which MIC (isolate Ab56, ST 1, ADC-75, OXA-69, OXA-23) does the source give for CO/N=C(\C(=O)N[C@@H]1C(=O)N2C(C(=O)[O-])=C(C[N+]3(C)CCCC3)CS[C@H]12)c1csc(N)n1 [cefepime] here?
The MIC was 32 µg/mL.

And the MIC (isolate Ab83, ST 25, ADC-5, OXA-64, OXA-23)?
Its MIC is 64 µg/mL.

And the MIC (isolate Ab109, ST 1, ADC-75, OXA-69, OXA-23)?
The MIC was 64 µg/mL.

What about the MIC (isolate Ab133, ST 2, ADC-30, OXA-66, OXA-58, TEM-12) of the same compound?
The MIC was 32 µg/mL.

What about the MIC (isolate Ab134, ST 2, ADC-30, OXA-66, OXA-58, TEM-12) of the same compound?
Its MIC is 16 µg/mL.

And the MIC (isolate Ab137, ST 85, ADC-2, OXA-94, OXA-23)?
The MIC was 64 µg/mL.

And the MIC (isolate Ab138, ST 745, ADC-30, OXA-66, OXA-58)?
The MIC was 32 µg/mL.

What about the MIC (isolate Ab140, ST 85, ADC-2, OXA-94, OXA-23) of the same compound?
Its MIC is 32 µg/mL.

What about the MIC (isolate Ab141, ST 745, ADC-30, OXA-66, OXA-58) of the same compound?
The MIC was 32 µg/mL.

And the MIC (isolate Ab144, ST 745, ADC-30, OXA-66, OXA-58)?
The MIC was 32 µg/mL.

And the MIC (isolate Ab169, ST 2, ADC-30, OXA-66, OXA-23)?
The MIC was 32 µg/mL.

What about the MIC (isolate Ab171, ST 2, ADC-30, OXA-66, OXA-23) of the same compound?
Its MIC is 32 µg/mL.

And the MIC (isolate Ab173, ST 2, ISAba1-ADC-30, OXA-66, OXA-23)?
The MIC was no less than 128 µg/mL.

And the MIC (isolate Ab174, ST 2, ADC-30, OXA-66, OXA-23)?
Its MIC is 32 µg/mL.

And the MIC (isolate Ab179, ST 2, ADC-30, OXA-66, OXA-23)?
Its MIC is 64 µg/mL.

What about the MIC (isolate Ab180, ST 2, ADC-30, OXA-66, OXA-24/40) of the same compound?
The MIC was 16 µg/mL.

And the MIC (isolate Ab181, ST 2, ADC-30, OXA-66, OXA-23)?
Its MIC is 32 µg/mL.

And the MIC (isolate Ab182, ST 2, ADC-30, OXA-66, OXA-23)?
Its MIC is 16 µg/mL.

What about the MIC (isolate Ab183, ST 2, ADC-30, OXA-66, OXA-23) of the same compound?
The MIC was 32 µg/mL.

What about the MIC (isolate Ab184, ST 2, ADC-30, OXA-66, OXA-23) of the same compound?
The MIC was no less than 128 µg/mL.

What about the MIC (isolate Ab186, ST 2, ADC-30, OXA-66, OXA-23) of the same compound?
The MIC was 32 µg/mL.

And the MIC (isolate Ab191, ST 2, ADC-30, OXA-66, OXA-23)?
The MIC was 32 µg/mL.

And the MIC (isolate Ab192, ST 2, ADC-30, OXA-66, OXA-23)?
Its MIC is 32 µg/mL.

What about the MIC (isolate Ab194, ST 2, ADC-30, OXA-66, OXA-23) of the same compound?
The MIC was 32 µg/mL.

What about the MIC (isolate Ab199, ST 2, ADC-30, OXA-66, OXA-23) of the same compound?
Its MIC is 32 µg/mL.

And the MIC (isolate Ab201, ST 2, ADC-30, OXA-66, OXA-23)?
The MIC was 64 µg/mL.

And the MIC (isolate Ab204, ST 2, ADC-30, OXA-66, OXA-23)?
Its MIC is 16 µg/mL.

What about the “MIC distribution 0.12” value (cumulative share of CRAB isolates (n = 67) at MIC 0.12 mg/L) of the same compound?
Its value is 0.

And the “MIC distribution 0.25” value (cumulative share of CRAB isolates (n = 67) at MIC 0.25 mg/L)?
Its value is 0.

What about the “MIC distribution 0.5” value (cumulative share of CRAB isolates (n = 67) at MIC 0.5 mg/L) of the same compound?
The value was 0.

And the “MIC distribution 1” value (cumulative share of CRAB isolates (n = 67) at MIC 1 mg/L)?
The value was 0.

And the “MIC distribution 2” value (cumulative share of CRAB isolates (n = 67) at MIC 2 mg/L)?
The value was 0.

What about the “MIC distribution 4” value (cumulative share of CRAB isolates (n = 67) at MIC 4 mg/L) of the same compound?
The value was 1.5.

And the “MIC distribution 8” value (cumulative share of CRAB isolates (n = 67) at MIC 8 mg/L)?
The value was 3.0.

What about the “MIC distribution 16” value (cumulative share of CRAB isolates (n = 67) at MIC 16 mg/L) of the same compound?
Its value is 22.4.

What about the “MIC distribution 32” value (cumulative share of CRAB isolates (n = 67) at MIC 32 mg/L) of the same compound?
The value was 70.1.

What about the “MIC distribution 64” value (cumulative share of CRAB isolates (n = 67) at MIC 64 mg/L) of the same compound?
The value was 97.0.
